Source: patent US9181234B2, “Antibacterial compounds” (priority 2010, dated 2015)
Converted amounts (≈) assume the structure as drawn.

How the values were obtained:
[1] = tested on: Streptococcus pyogenes (Isolate ID ATCC 51339); experiment: Antibacterial activity, MIC, S. pyogenes; assay type: cell-based; settings: Streptococcus pyogenes, ATCC51339, Gram positive strain; broth microdilution or agar dilution
Method: (§1) Bacterial Assay: Determination of Antibacterial Activity
(§2) Compounds of the invention were tested for antimicrobial activity by susceptibility testing in liquid or on solid media. MICs for compounds against each strain were determined by the broth microdilution or agar dilution method according to the guidelines of the Clinical Laboratories and Standards Institute, formerly the National Committee for Clinical Laboratory Standards (Clinical Laboratories and Standards Institute. Methods for Dilution Antimicrobial Susceptibility Tests for Bacteria That Grow Aerobically; Approved Standard—Seventh Edition. Document M7-A7. CLSI, Wayne, Pa., 2006; Clinical Laboratories and Standards Institute. The gram positive bacterial strains tested include S. aureus (Staphylococcus aureus (Isolate ID ATCC 29213)), E. faecalis (Enterococcus faecalis (Isolate ID ATCC 29212)) and S. pyogenes (Streptococcus pyogenes (Isolate ID ATCC 51339)). The gram negative bacterial strains tested include H. influenzae (Haemophilus influenzae (Isolate ID ATCC 49247))

[2] = physchem; settings: kinetic from dmso stock
Method: Turbimetric Assay: Determination of Solubility
The solubility of the compounds was measured using a turbidimetric method. A series of doubling dilutions of compounds were prepared in neat dimethyl sulfoxide (DMSO). 5 μl samples were diluted twenty-fold into 95 μl volumes of 100 mM citrate buffer (pH 4), phosphate buffered saline (PBS, pH 7.4) or carbonate-bicarbonate buffer (pH 9) in microtitre assay plates and allowed to reach equilibrium at room temperature for 24 hours. The absorbance within each well of the plate was read spectrophotometrically at a wavelength of 620 nm. A precipitate forms when the maximum aqueous solubility level is reached. The value quoted is the highest concentration where the compound was in solution i.e. where no measurable precipitate was present. […] ND=not determined

[3] = tested on: Staphylococcus aureus (Isolate ID ATCC 29213); experiment: Antibacterial activity, MIC, S. aureus; assay type: cell-based; settings: Staphylococcus aureus, ATCC29213, Gram positive strain; broth microdilution or agar dilution
Method: as §1, §2

[4] = tested on: Haemophilus influenzae (Isolate ID ATCC 49247); experiment: Antibacterial activity, MIC, H. influenzae; assay type: cell-based; settings: Haemophilus influenzae, ATCC49247; Gram negative strain; broth microdilution or agar dilution
Method: as §1, §2

[5] = pH 7.4, aqueous buffer, Max Solubility
[6] = pH 7.4, aqueous buffer, Solubility (pH 7.4)
[7] = pH 7.4, aqueous buffer, Solubility Range
[8] = pH 7.4, aqueous buffer, Solubility Range (maximum solubility)

Row | MIC [1] | solubility at 24 h [2, 5] | solubility at 24 h [2, 6] | solubility at 24 h [2, 7] | solubility at 24 h [2, 8] | MIC [3] | MIC [4] | solubility at 24 h ([2]; pH 9, aqueous buffer, Max Solubility) | solubility at 24 h ([2]; pH 9, aqueous buffer, Solubility Range (maximum solubility)) | Compound
1 | 1 to 16 µg/mL (≈ 1.83 to 29.3 µM) | ≥ 800 µg/mL | ≥ 800 µg/mL | > 800 µg/mL | > 800 µg/mL | 1 to 16 µg/mL (≈ 1.83 to 29.3 µM) | 1 to 16 µg/mL (≈ 1.83 to 29.3 µM) | – | – | CCNC(=O)Nc1nc2cc(-c3cnc(C(=O)N4CCC(C)(C(=O)O)CC4)nc3)cc(-c3ccccn3)c2s1 [Compound 192]
2 | 1 to 16 µg/mL (≈ 2.01 to 32.2 µM) | ≥ 800 µg/mL | ≥ 800 µg/mL | > 800 µg/mL | > 800 µg/mL | 1 to 16 µg/mL (≈ 2.01 to 32.2 µM) | 1 to 16 µg/mL (≈ 2.01 to 32.2 µM) | – | – | CCNC(=O)Nc1nc2cc(-c3cnc(N4CCC(CC)(C(=O)O)CC4)nc3)cc(C(N)=O)c2s1 [Compound 193, 1-[5-[7-carbamoyl-2-(ethylcarbamoylamino)-1,3-benzothiazol-5-yl]pyrimidin-2-yl]-4-ethyl-piperidine-4-carboxylic acid]
3 | 1 to 16 µg/mL (≈ 1.89 to 30.3 µM) | ≥ 800 µg/mL | ≥ 800 µg/mL | > 800 µg/mL | > 800 µg/mL | 1 to 16 µg/mL (≈ 1.89 to 30.3 µM) | 1 to 16 µg/mL (≈ 1.89 to 30.3 µM) | – | – | CCNC(=O)Nc1nc2cc(-c3cnc(N4CCC(C)(C(=O)O)CC4)nc3)cc(COCCOC)c2s1 [Compound 194]
4 | ≤ 0.25 µg/mL | ≥ 800 µg/mL | ≥ 800 µg/mL | > 800 µg/mL | > 800 µg/mL | 1 to 16 µg/mL (≈ 1.93 to 30.9 µM) | 1 to 16 µg/mL (≈ 1.93 to 30.9 µM) | – | – | CCNC(=O)Nc1nc2cc(-c3cnnc(N4CCC(C)(C(=O)O)CC4)c3)cc(-c3ccccn3)c2s1 [Compound 195, 1-[5-[2-(ethylcarbamoylamino)-7-(2-pyridyl)-1,3-benzothiazol-5-yl]pyridazin-3-yl]-4-methyl-piperidine-4-carboxylic acid]
5 | 1 to 16 µg/mL (≈ 1.87 to 29.9 µM) | – | 50 µg/mL (≈ 93.4 µM) | 12.5 to 400 µg/mL (≈ 23.3 to 747 µM) | – | 1 to 16 µg/mL (≈ 1.87 to 29.9 µM) | 1 to 16 µg/mL (≈ 1.87 to 29.9 µM) | 100 µg/mL (≈ 187 µM) | 12.5 to 400 µg/mL (≈ 23.3 to 747 µM) | CCNC(=O)Nc1nc2cc(-c3cnc(NC4COC(C)(C(=O)O)OC4)nc3)cc(-c3ccccn3)c2s1 (stereo not shown) [Compound 196]
6 | 0.25 to 1 µg/mL (≈ 0.477 to 1.91 µM) | ≥ 800 µg/mL | ≥ 800 µg/mL | > 800 µg/mL | > 800 µg/mL | 1 to 16 µg/mL (≈ 1.91 to 30.6 µM) | 1 to 16 µg/mL (≈ 1.91 to 30.6 µM) | – | – | CCNC(=O)Nc1nc2cc(-c3cnc(N4CCC(CC)(C(=O)O)CC4)nc3)cc(C3=NOCC3)c2s1 [Compound 197, 1-[5-[7-(4,5-dihydroisoxazol-3-yl)-2-(ethylcarbamoylamino)-1,3-benzothiazol-5-yl]pyrimidin-2-yl]-4-ethyl-piperidine-4-carboxylic acid]
7 | 1 to 16 µg/mL (≈ 2.13 to 34 µM) | ≥ 800 µg/mL | ≥ 800 µg/mL | > 800 µg/mL | > 800 µg/mL | 1 to 16 µg/mL (≈ 2.13 to 34 µM) | 1 to 16 µg/mL (≈ 2.13 to 34 µM) | – | – | CCNC(=O)Nc1nc2cc(-c3cnc(N4CCC(C)(C(=O)O)CC4)nc3)c(OC)cc2s1 [Compound 198, 1-[5-[2-(Ethylcarbamoylamino)-6-methoxy-1,3-benzothiazol-5-yl]pyrimidin-2-yl]-4-methyl-piperidine-4-carboxylic acid]
8 | 0.25 to 1 µg/mL (≈ 0.518 to 2.07 µM) | ≥ 800 µg/mL | ≥ 800 µg/mL | > 800 µg/mL | > 800 µg/mL | 1 to 16 µg/mL (≈ 2.07 to 33.2 µM) | 1 to 16 µg/mL (≈ 2.07 to 33.2 µM) | – | – | CCNC(=O)Nc1nc2cc(-c3cnc(N4CCC(CC)(C(=O)O)CC4)nc3)cc(C=O)c2s1 [Compound 199, 4-ethyl-1-[5-[2-(ethylcarbamoylamino)-7-formyl-1,3-benzothiazol-5-yl]pyrimidin-2-yl]piperidine-4-carboxylic acid]
9 | 1 to 16 µg/mL (≈ 2.13 to 34 µM) | ≥ 800 µg/mL | ≥ 800 µg/mL | > 800 µg/mL | > 800 µg/mL | 1 to 16 µg/mL (≈ 2.13 to 34 µM) | 1 to 16 µg/mL (≈ 2.13 to 34 µM) | – | – | CCNC(=O)Nc1nc2cc(-c3cnc(N4CCC(C)(C(=O)O)CC4)nc3)cc(OC)c2s1 [Compound 200, 1-[5-[2-(Ethylcarbamoylamino)-7-methoxy-1,3-benzothiazol-5-yl]pyrimidin-2-yl]-4-methyl-piperidine-4-carboxylic acid]
10 | 0.25 to 1 µg/mL (≈ 0.496 to 1.99 µM) | ≥ 800 µg/mL | ≥ 800 µg/mL | > 800 µg/mL | > 800 µg/mL | 1 to 16 µg/mL (≈ 1.99 to 31.8 µM) | 1 to 16 µg/mL (≈ 1.99 to 31.8 µM) | – | – | CCNC(=O)Nc1nc2cc(-c3cnc(N4CCC(C)(C(=O)O)C4)nc3)cc(-c3ccccn3)c2s1 (stereo not shown) [Compound 201]
